In patent US6992083B2, “Benzoxazol derivatives” (Hoffman-La Roche Inc., priority 2003, dated 2006):

Experiments:
[1] = target: T1, hA1 (Homo sapiens, UniProt P30542); test: selectivity to the A1 receptor; assay type: binding; conditions: selectivity of A2a affinity versus hA1
T1 sequence (P30542 1-326): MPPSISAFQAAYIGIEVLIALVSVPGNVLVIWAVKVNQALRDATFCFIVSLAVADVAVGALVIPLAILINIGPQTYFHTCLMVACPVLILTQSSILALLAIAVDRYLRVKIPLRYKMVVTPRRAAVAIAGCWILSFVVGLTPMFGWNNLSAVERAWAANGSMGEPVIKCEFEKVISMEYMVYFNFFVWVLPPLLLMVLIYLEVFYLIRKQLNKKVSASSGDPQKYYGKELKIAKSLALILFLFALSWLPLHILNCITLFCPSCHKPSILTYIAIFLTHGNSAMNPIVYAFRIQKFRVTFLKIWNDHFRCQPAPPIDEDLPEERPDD

[2] = target: T2, human adenosine A2A receptor (Homo sapiens, UniProt P29274); test: [3H]-SCH-58261 binding assay, human adenosine A2A receptor; conditions: recombinant receptor in CHO cell membranes, [3H]-SCH-58261 1 nM, Ki by Cheng-Prussoff; read-out: hA2a pKi (converted)
T2 construct: expressed in transfected cells; host or cells: CHO cells, Semliki Forest virus expression system; washed membrane preparation
Protocol: Human Adenosine A2A Receptor
The human adenosine A2A receptor was recombinantly expressed in Chinese hamster ovary (CHO) cells using the semliki forest virus expression system. Cells were harvested, washed twice by centrifugation, homogenised and again washed by centrifugation. The final washed membrane pellet was suspended in a Tris (50 mM) buffer containing 120 mM NaCl, 5 mM KCl, 2 mM CaCl2 and 10 mM MgCl2 (pH 7.4) (buffer A). The [^3H]-SCH-58261 (Dionisotti et al., 1997, Br J Pharmacol 121, 353; 1 nM) binding assay was carried out in 96-well plates in the presence of 2.5 μg of membrane protein, 0.5 mg of Ysi-poly-1-lysine SPA beads and 0.1 U adenosine deaminase in a final volume of 200 μl of buffer A. Non-specific binding was defined using xanthine amine congener (XAC; 2 μM). Compounds were tested at 10 concentrations from 10 μM–0.3 nM. All assays were conducted in duplicate and repeated at least two times. Assay plates were incubated for 1 hour at room temperature before centrifugation and then bound ligand determined using a Packard Topcount scintillation counter. IC50 values were calculated using a non-linear curve fitting program and Ki values calculated using the Cheng-Prussoff equation.

T2 sequence (P29274 whole entry): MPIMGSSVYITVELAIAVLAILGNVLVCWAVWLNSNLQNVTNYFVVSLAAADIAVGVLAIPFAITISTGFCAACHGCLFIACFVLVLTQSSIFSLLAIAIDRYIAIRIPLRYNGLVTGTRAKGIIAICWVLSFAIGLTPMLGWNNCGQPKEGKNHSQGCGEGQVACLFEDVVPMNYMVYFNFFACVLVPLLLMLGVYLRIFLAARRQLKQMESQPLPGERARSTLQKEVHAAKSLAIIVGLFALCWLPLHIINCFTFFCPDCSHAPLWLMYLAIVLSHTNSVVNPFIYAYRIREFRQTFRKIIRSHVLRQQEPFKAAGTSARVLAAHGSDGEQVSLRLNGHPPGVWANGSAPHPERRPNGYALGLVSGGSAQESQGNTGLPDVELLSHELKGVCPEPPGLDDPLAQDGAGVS

SMILES	selectivity to hA1 [1]	Ki [2]
COc1ccc(-c2ccccc2)c2oc(NC(=O)c3ccc(F)cc3)nc12 [Example 1, 4-Fluoro-N-(4-methoxy-7-phenyl-benzooxazol-2-yl)-benzamide]	26	12 nM
COCCN(C)Cc1ccc(C(=O)Nc2nc3c(OC)ccc(-c4ccccc4)c3o2)cc1 [Example 2, 4-{[(2-Methoxy-ethyl)-methyl-amino]-methyl}-N-(4-methoxy-7-phenyl-benzooxazol-2-yl)-benzamide]	137	22.4 nM
COc1ccc(C2CCOCC2)c2oc(NC(=O)c3ccc(F)cc3)nc12 [Example 5, 4-Fluoro-N-[4-methoxy-7-(tetrahydro-pyran-4-yl)-benzooxazol-2-yl]-benzamide]	140	21.9 nM
COc1ccc(C2CCOCC2)c2oc(NC(=O)c3ccnc(N4CCOCC4)c3)nc12 [Example 9, N-[4-Methoxy-7-(tetrahydro-pyran-4-yl)-benzooxazol-2-yl]-2-morpholin-4-yl-isonicotinamide]	351	21.9 nM
COc1ccc(-c2ccc(F)cc2)c2oc(NC(=O)c3ccnc(CCl)c3)nc12 [Example 13, 2-Chloromethyl-N-[7-(4-fluoro-phenyl)-4-methoxy-benzooxazol-2-yl]-isonicotinamide]	227	22.9 nM
COc1ccc(-c2ccc(F)cc2)c2oc(NC(=O)c3ccnc(C)c3)nc12 [Example 14, N-[7-(4-Fluoro-phenyl)-4-methoxy-benzooxazol-2-yl]-2-methyl-isonicotinamide]	134	15.8 nM
COc1ccc(-c2ccc(F)cc2)c2oc(NC(=O)c3ccc(C)nc3)nc12 [Example 17, N-[7-(4-Fluoro-phenyl)-4-methoxy-benzooxazol-2-yl]-6-methyl-nicotinamide]	242	12.9 nM
COc1ccc(-c2ccc(F)cc2)c2oc(NC(=O)c3ccc(F)cc3)nc12 [Example 18, 4-Fluoro-N-[7-(4-fluoro-phenyl)-4-methoxy-benzooxazol-2-yl]-benzamide]	120	6.46 nM
COc1ccc(-c2ccc(F)cc2)c2oc(NC(=O)c3ccnc(N4CCOCC4)c3)nc12 [Example 20, N-[7-(4-Fluoro-phenyl)-4-methoxy-benzooxazol-2-yl]-2-morpholin-4-yl-isonicotinamide]	650	8.51 nM
COCc1cc(C(=O)Nc2nc3c(OC)ccc(-c4ccc(F)cc4)c3o2)ccn1 [Example 21, N-[7-(4-Fluoro-phenyl)-4-methoxy-benzooxazol-2-yl]-2-methoxymethyl-isonicotinamide]	96	30.2 nM
